Test results taken from patent US20210269451A1, “PYRIDINYL HETEROCYCLYL COMPOUNDS FOR THE TREATMENT OF AUTOIMMUNE DISEASE” (Hoffmann-La Roche Inc., priority 2018, published 2021).

Legend:
hERG channel = biological target: T1, hERG channel (Homo sapiens, UniProt Q12809); test: hERG channel inhibition assay (patch-clamp, CHOhERG cells); type: cell-based; details: for IC50 / IC20: CHOhERG cells, whole-cell patch-clamp; for IC20: human, CHO cells stably expressing hERG (CHOhERG); for hERG IC20/TLR7 IC50 / hERG IC20/TLR8 IC50 / hERG IC20/TLR9 IC50: safety ratio;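 as to hERG IC20/TLR7 IC50: ratio above 30 indicates an adequate safety window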;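 as to hERG IC20/TLR8 IC50: ratio above 30 indicates an adequate safety window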
T1 construct: expressed in transfected cells; host or cells: CHO (Chinese hamster ovary), CHOhERG
T1 sequence (Q12809 whole entry): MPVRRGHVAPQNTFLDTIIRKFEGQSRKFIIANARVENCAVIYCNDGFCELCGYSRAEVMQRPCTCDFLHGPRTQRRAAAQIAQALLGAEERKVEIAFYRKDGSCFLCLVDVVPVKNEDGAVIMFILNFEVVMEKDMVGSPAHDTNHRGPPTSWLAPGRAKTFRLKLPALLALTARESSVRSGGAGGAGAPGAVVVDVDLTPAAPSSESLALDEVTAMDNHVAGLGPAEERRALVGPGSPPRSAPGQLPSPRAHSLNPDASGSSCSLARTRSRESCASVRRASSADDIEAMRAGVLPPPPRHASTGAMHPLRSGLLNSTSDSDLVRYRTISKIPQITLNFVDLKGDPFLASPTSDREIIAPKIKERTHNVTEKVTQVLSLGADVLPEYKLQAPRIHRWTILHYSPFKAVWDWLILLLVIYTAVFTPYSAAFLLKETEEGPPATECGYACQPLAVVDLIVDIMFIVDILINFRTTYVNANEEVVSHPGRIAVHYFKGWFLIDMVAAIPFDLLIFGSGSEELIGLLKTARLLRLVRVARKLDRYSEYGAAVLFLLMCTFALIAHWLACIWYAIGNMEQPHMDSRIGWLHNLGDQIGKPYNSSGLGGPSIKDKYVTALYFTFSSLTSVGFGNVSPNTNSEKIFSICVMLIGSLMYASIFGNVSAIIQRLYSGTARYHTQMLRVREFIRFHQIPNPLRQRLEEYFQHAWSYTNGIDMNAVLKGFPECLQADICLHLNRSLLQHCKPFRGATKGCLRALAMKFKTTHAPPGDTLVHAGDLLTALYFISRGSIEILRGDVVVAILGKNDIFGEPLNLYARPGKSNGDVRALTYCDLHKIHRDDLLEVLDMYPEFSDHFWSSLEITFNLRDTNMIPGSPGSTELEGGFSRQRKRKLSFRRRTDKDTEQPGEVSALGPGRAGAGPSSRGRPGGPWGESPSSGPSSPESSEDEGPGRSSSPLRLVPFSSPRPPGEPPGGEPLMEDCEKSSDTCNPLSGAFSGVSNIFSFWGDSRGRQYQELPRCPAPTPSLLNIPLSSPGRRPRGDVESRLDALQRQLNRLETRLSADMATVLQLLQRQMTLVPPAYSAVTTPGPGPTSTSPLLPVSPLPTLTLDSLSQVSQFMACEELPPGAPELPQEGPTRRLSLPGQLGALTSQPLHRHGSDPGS
Procedure: hERG channel inhibition assay:
The hERG K^+ channels were cloned in humans and stably expressed in a CHO (Chinese hamster ovary) cell line. CHOhERG cells were used for patch-clamp (voltage-clamp, whole-cell) experiments. Cells were stimulated by a voltage pattern to activate hERG channels and conduct IKhERG currents (rapid delayed outward rectifier potassium current of the hERG channel). After the cells were stabilized for a few minutes, the amplitude and kinetics of IKhERG were recorded at a stimulation frequency of 0.1 Hz (6 bpm). Thereafter, the test compound was added to the preparation at increasing concentrations. For each concentration, an attempt was made to reach a steady-state effect, usually, this was achieved within 3-10 min at which time the next highest concentration was applied. The amplitude and kinetics of IKhERG are recorded in each concentration of the drug which were compared to the control values (taken as 100%). (references: Redfern W S, Carlsson L, Davis A S, Lynch W G, MacKenzie I, Palethorpe S, Siegl P K, Strang I, Sullivan A T, Wallis R, Camm A J, Hammond T G. 2003; Relationships between preclinical cardiac electrophysiology, clinical QT interval prolongation and torsade de pointes for a broad range of drugs: evidence for a provisional safety margin in drug development. Cardiovasc. Res. 58:32-45, Sanguinetti M C, Tristani-Firouzi M. 2006; hERG potassium channels and cardiac arrhythmia. Nature 440:463-469, Webster R, Leishman D, Walker D. 2002; Towards a drug concentration effect relationship for QT prolongation and torsades de pointes. Curr. Opin. Drug Discov. Devel. 5:116-26).

[1] = Human microsome stability assay; type: in vitro ADME; details: 1 μM test compound, 0.5 mg/mL liver microsomal protein, 37° C.
Procedure: Human microsome stability assay
The human microsomal stability assay is used for early assessment of metabolic stability of a test compound in human liver microsomes.
Human liver microsomes (Cat.NO.: 452117, Corning, USA;Cat.NO.:H2610, Xenotech, USA) were preincubated with test compound for 10 minutes at 37° C. in 100 mM potassium phosphate buffer, pH 7.4. The reactions were initiated by adding NADPH regenerating system. The final incubation mixtures contained 1 μM test compound, 0.5 mg/mL liver microsomal protein, 1 mM MgCl2, 1 mM NADP, 1 unit/mL isocitric dehydrogenase and 6 mM isocitric acid in 100 mM potassium phosphate buffer, pH 7.4. After incubation times of 0, 3, 6, 9, 15 and 30 minutes at 37° C., 300 μL of cold acetonitrile (including internal standard) was added to 100 μL incubation mixture to terminate the reaction. Following precipitation and centrifugation, the amount of compound remaining in the samples were determined by LC-MS/MS. Controls of no NADPH regenerating system at zero and 30 minutes were also prepared and analyzed.

Compound | IC50 (hERG channel) [µM] | IC20 (hERG channel) [µM] | hERG IC20/TLR7 IC50 (hERG channel) | hERG IC20/TLR8 IC50 (hERG channel) | hERG IC20/TLR9 IC50 (hERG channel) | Clearance of Human microsome [1] [mL/min/kg]
Cc1cc(N2CC3(CN(C[C@H]4CN(c5ccc(C#N)c6ncccc56)C[C@@H](C)O4)C3)C2)cc(CO)n1 [Example 1, 5-[(2S,6R)-2-[[2-[2-(hydroxymethyl)-6-methyl-4-pyridyl]-2,6-diazaspiro[3.3]heptan-6-yl]methyl]-6-methyl-morpholin-4-yl]quinoline-8-carbonitrile] | > 20 | > 10 | >357.1 | >123.5 | >294.1 | 6.35
Cc1cc(N2CCN(C[C@H]3CN(c4ccc(C#N)c5ncccc45)C[C@@H](C)O3)[C@@H](C)C2)cc(CO)n1 [Example 4A] |  |  |  |  |  | 6.15
Cc1cc(NC2CCN(C[C@H]3CN(c4ccc(C#N)c5ncccc45)C[C@@H](C)O3)CC2)cc(CO)n1 [Example 5] | > 20 | 7.18 | 121.8 | 217.7 | 224.5 | 7.47
Cc1cc(NC2CCN(C[C@H]3CN(c4ccc(C#N)c5ncccc45)C[C@@H](C)O3)C2)cc(CO)n1 (stereo partly drawn) [Example 6] | > 20 | 5.83 | 132.4 | 109.9 | 142.1 | 6.15
Cc1cc(NC2CN(C[C@H]3CN(c4ccc(C#N)c5ncccc45)C[C@@H](C)O3)C2)cc(C)n1 [Example 7] | > 20 | > 10 | >384.6 | >322.6 | >256.4 | 6.15
Cc1cc(N2CCC3(CN(C[C@H]4CN(c5ccc(C#N)c6ncccc56)C[C@@H](C)O4)C3)C2)cc(C)n1 [Example 9] |  |  |  |  |  | 6.15
C[C@@H]1CN(c2ccc(C#N)c3ncccc23)C[C@H](CNC2CCN(c3ccnc(N)c3)CC2)O1 [Example 20, 5-[(2S,6R)-2-[[[1-(2-amino-4-pyridyl)-4-piperidyl]amino]methyl]-6-methyl-morpholin-4-yl]quinoline-8-carbonitrile] |  |  |  |  |  | 6.15
Cc1cc(N2CC[C@@H](NC[C@H]3CN(c4ccc(C#N)c5ncccc45)C[C@@H](C)O3)C2)cc(CO)n1 [Example 28] |  |  |  |  |  | 6.25
Cc1cc(N2CC(NC[C@H]3CN(c4ccc(C#N)c5ncccc45)C[C@@H](C)O3)C2)cc(CO)n1 [Example 30] | > 10 | 4.51 | 69.4 | 322.0 | 51.2 | 7.14
Cc1cc(N2CC(N(C)C[C@H]3CN(c4ccc(C#N)c5ncccc45)C[C@@H](C)O3)C2)cc(CO)n1 [Example 37] |  |  |  |  |  | 6.15
Cc1cc(N2CCN(C[C@H]3CN(c4ccc(C#N)c5ncccc45)C[C@@H](C)O3)CC2)cc(N)n1 [Example 40, 5-[(2S,6R)-2-[[4-(2-amino-6-methyl-4-pyridyl)piperazin-1-yl]methyl]-6-methyl-morpholin-4-yl]quinoline-8-carbonitrile] |  |  |  |  |  | 6.15
Cc1cc(N2CC3(CN(C[C@H]4CN(c5ccc(C#N)c6ncccc56)C[C@@H](C)O4)C3)C2)cc(C(C)O)n1 (stereo partly drawn) [Example 44, 5-[(2S,6R)-2-[[2-[2-(1-hydroxyethyl)-6-methyl-4-pyridyl]-2,6-diazaspiro[3.3]heptan-6-yl]methyl]-6-methyl-morpholin-4-yl]quinoline-8-carbonitrile] |  |  |  |  |  | 7.21
C[C@@H]1CN(c2ccc(C#N)c3ncccc23)C[C@H](CN2CCN(c3cc(N)nc(CO)c3)CC2)O1 [Example 45, 5-[(2S,6R)-2-[[4-[2-amino-6-(hydroxymethyl)-4-pyridyl]piperazin-1-yl]methyl]-6-methyl-morpholin-4-yl]quinoline-8-carbonitrile] | > 20 | > 10 | >256.4 | >714.3 | >109.9 | 
CC(O)c1cc(N2CC3(CN(C[C@H]4CN(c5ccc(C#N)c6ncccc56)C[C@@H](C)O4)C3)C2)ccn1 (stereo partly drawn) [Example 46, 5-[(2S,6R)-2-[[2-[2-(1-hydroxyethyl)-4-pyridyl]-2,6-diazaspiro[3.3]heptan-6-yl]methyl]-6-methyl-morpholin-4-yl]quinoline-8-carbonitrile] | > 10 | 4.69 | 146.6 | 52.1 | 146.6 | 7.66
C[C@@H]1CN(c2ccc(C#N)c3ncccc23)C[C@H](CN2CC3(C2)CN(c2ccnc(C(C)(C)O)c2)C3)O1 [Example 48, 5-[(2S,6R)-2[[2-[2-(1-hydroxy-1-methyl-ethyl)-4-pyridyl]-2,6-diazaspiro[3.3]heptan-6-yl]methyl]-6-methyl-morpholin-4-yl]quinoline-8-carbonitrile] |  |  |  |  |  | 6.87
C[C@@H]1CN(c2ccc(C#N)c3ncccc23)C[C@H](CN2CC3(C2)CN(c2ccnc(C4CC4)c2)C3)O1 [Example 49, 5-[(2S,6R)-2[[2-(2-cyclopropyl-4-pyridyl)-2,6-diazaspiro[3.3]heptan-6-yl]methyl]-6-methyl-morpholin-4-yl]quinoline-8-carbonitrile] |  |  |  |  |  | 6.39
Cc1cc(N2CCN(C[C@H]3CN(c4ccc(C#N)c5ncccc45)C[C@@H](C)O3)CC2)cc(CO)n1 [Example 50] |  |  |  |  |  | 7.72
